# Reference: US20060111410A1, “Microbicide substances” (priority 2002, published 2006)
# How the values were obtained:
# Pseudomonas fluorescens = assay: Synergism BIT/TMAD, amounts required to suppress growth; format: cell-based; conditions: compound applied on its own
# From the text: (§1) The observed synergism of the mixtures according to the invention can be determined by the following mathematical approach (cf. F. C. Kull, P. C. Elisman, H. D. Sylwestrowicz and P. K. Mayer, Appl. Microbiol. 9, 538 (1961): [formula] where • Qa=the amount of component A in the active compound mixture required to achieve the desired effect, i.e. no microbial growth, • QA=the amount of component A which, applied on its own, suppresses the growth of the microorganisms, • Qb=the amount of component B in the active compound mixture which supresses the growth of the microorganisms, and • QB=the amount of component B which, applied on its own, suppresses the growth of the microorganisms.
# (§2) A synergistic index of SI<1 indicates a synergistic effect for the active compound mixture.
# Test germ: Pseudomonas fluorescens
# (§3) The numbers in brackets indicate the weight ratio of the active compounds in the mixtures. [formula] A=BIT/B=TMAD
# Pseudomonas aeruginosa = assay: as above; format: cell-based; conditions: compound applied on its own
# From the text: as §1, §2
# Test germ: Pseudomonas aeruginosa
# as §3
Compound,Amounts of the pure active compounds required to suppress growth (Pseudomonas fluorescens) [ppm],Amounts of the pure active compounds required to suppress growth (Pseudomonas aeruginosa) [ppm]
"O=c1[nH]sc2ccccc12 [BIT, 1,2-benzisothiazolinone]",20,20
"O=C1N(CO)C2C(N1CO)N(CO)C(=O)N2CO (stereo not shown) [TMAD, tetramethylolacetylenediurea]",500,500
